Measurements as given in ChEMBL document CHEMBL3885881, “DrugMatrix”.

Species on record: Rattus norvegicus
Experiment: DrugMatrix - Regimen: Daily Repeat
Assay type: toxicity, organism-based, Sprague-Dawley
Design: regimen Daily Repeat, gender Male, age 6-8 weeks
Conditions: in vivo, po, route oral GAVAGE, vehicle 100 % WATER
[1] = 9 mg/kg, 72 h, tissue Blood, dose level Low, time 3 day
[2] = 9 mg/kg, 72 h, tissue Plasma, dose level Low, time 3 day
[3] = 9 mg/kg, 120 h, tissue Blood, dose level Low, time 5 day
[4] = 9 mg/kg, 120 h, tissue Plasma, dose level Low, time 5 day
[5] = 90 mg/kg, 72 h, tissue Blood, dose level High, time 3 day
[6] = 90 mg/kg, 72 h, tissue Plasma, dose level High, time 3 day
[7] = 90 mg/kg, 120 h, tissue Blood, dose level High, time 5 day
[8] = 90 mg/kg, 120 h, tissue Plasma, dose level High, time 5 day

For STANNOUS FLUORIDE, the “ABSOLUTE BASOPHIL” value [1] was 0 CELLS/uL, the “ABSOLUTE EOSINOPHIL” value [1] was 0 CELLS/uL and the “ABSOLUTE LYMPHOCYTE” value [1] was 13273.33 CELLS/uL. For the same sequence, the “ABSOLUTE MONOCYTE” value [1] was 348.33 CELLS/uL, the “ABSOLUTE SEGMENTED NEUTROPHIL” value [1] was 1378.33 CELLS/uL and the BASOPHIL [1] was 0%. The EOSINOPHIL [1] was 0%, the “ERYTHROCYTE COUNT” value [1] was 5.48 x10E6/uL and the HEMATOCRIT [1] was 34.9%. For the same sequence, the HEMOGLOBIN [1] was 13.5 G/DL, the “LEUKOCYTE COUNT” value [1] was 15 x10E3/uL and the “MEAN CORPUSCULAR HEMOGLOBIN” value [1] was 24.67 pg. The “MEAN CORPUSCULAR HEMOGLOBIN CONCENTRATION” value [1] was 38.7 G/DL, the “NUCLEATED RED BLOOD CELLS” value [1] was 0 /100WBC and the “PLATELET COUNT” value [1] was 1118.33 x10E3/uL. For the same sequence, the “ALANINE AMINOTRANSFERASE” value [2] was 80.67 u/L, the “ALKALINE PHOSPHATASE” value [2] was 343 u/L and the “ASPARTATE AMINOTRANSFERASE” value [2] was 104.33 u/L. For the same sequence, the “BLOOD UREA NITROGEN” value [2] was 17 mg/dL, the “CARBON DIOXIDE” value [2] was 21.33 mmol/L and the CHOLESTEROL [2] was 77 mg/dL. The “CREATINE PHOSPHOKINASE” value [2] was 322.33 u/L, the CREATININE [2] was 0.21 mg/dL and the GLUCOSE [2] was 188 mg/dL. The “LACTATE DEHYDROGENASE” value [2] was 156 u/L, the LIPASE [2] was 9.5 u/L and the PHOSPHORUS [2] was 11.3 mg/dL. The POTASSIUM [2] was 6.63 MEQ/L, the SODIUM [2] was 146.2 MEQ/L and the “TOTAL BILIRUBIN” value [2] was 0.37 mg/dL. For the same sequence, the “TOTAL PROTEIN” value [2] was 5.07 G/DL, the “URIC ACID” value [2] was 1.73 mg/dL and the “ABSOLUTE BASOPHIL” value [3] was 0 CELLS/uL. For the same sequence, the “ABSOLUTE EOSINOPHIL” value [3] was 174 CELLS/uL, the “ABSOLUTE LYMPHOCYTE” value [3] was 11650 CELLS/uL and the “ABSOLUTE MONOCYTE” value [3] was 421.33 CELLS/uL. For the same sequence, the “ABSOLUTE SEGMENTED NEUTROPHIL” value [3] was 1221.33 CELLS/uL, the BASOPHIL [3] was 0% and the EOSINOPHIL [3] was 1%. The “ERYTHROCYTE COUNT” value [3] was 5.66 x10E6/uL, the HEMATOCRIT [3] was 35.6% and the HEMOGLOBIN [3] was 13.1 G/DL. The “LEUKOCYTE COUNT” value [3] was 13.47 x10E3/uL, the LYMPHOCYTE [3] was 86.67% and the “MEAN CORPUSCULAR HEMOGLOBIN” value [3] was 23.23 pg. For the same sequence, the “MEAN CORPUSCULAR HEMOGLOBIN CONCENTRATION” value [3] was 36.9 G/DL, the “MEAN CORPUSCULAR VOLUME” value [3] was 62.97 fL and the MONOCYTE [3] was 3%. The “NUCLEATED RED BLOOD CELLS” value [3] was 0 /100WBC, the “PLATELET COUNT” value [3] was 1231.67 x10E3/uL and the “ALANINE AMINOTRANSFERASE” value [4] was 45 u/L. For the same sequence, the “ALKALINE PHOSPHATASE” value [4] was 430.67 u/L, the “ASPARTATE AMINOTRANSFERASE” value [4] was 96.67 u/L and the “BLOOD UREA NITROGEN” value [4] was 22 mg/dL. For the same sequence, the “CARBON DIOXIDE” value [4] was 24.33 mmol/L, the CHLORIDE [4] was 108.67 MEQ/L and the CHOLESTEROL [4] was 59 mg/dL. The “CREATINE PHOSPHOKINASE” value [4] was 371.67 u/L, the CREATININE [4] was 0.2 mg/dL and the GLUCOSE [4] was 135.33 mg/dL. The “LACTATE DEHYDROGENASE” value [4] was 479 u/L, the PHOSPHORUS [4] was 12.03 mg/dL and the POTASSIUM [4] was 6.27 MEQ/L. For the same sequence, the SODIUM [4] was 147.1 MEQ/L, the “TOTAL BILIRUBIN” value [4] was 0.17 mg/dL and the “TOTAL PROTEIN” value [4] was 6.13 G/DL. The “ABSOLUTE BASOPHIL” value [5] was 0 CELLS/uL, the “ABSOLUTE EOSINOPHIL” value [5] was 58 CELLS/uL and the “ABSOLUTE LYMPHOCYTE” value [5] was 13530 CELLS/uL. For the same sequence, the “ABSOLUTE MONOCYTE” value [5] was 390.67 CELLS/uL, the “ABSOLUTE SEGMENTED NEUTROPHIL” value [5] was 1821.33 CELLS/uL and the BASOPHIL [5] was 0%. The EOSINOPHIL [5] was 0.33%, the “ERYTHROCYTE COUNT” value [5] was 5.56 x10E6/uL and the HEMATOCRIT [5] was 34%. For the same sequence, the “LEUKOCYTE COUNT” value [5] was 15.8 x10E3/uL, the LYMPHOCYTE [5] was 85.67% and the “MEAN CORPUSCULAR HEMOGLOBIN” value [5] was 23.23 pg. The “MEAN CORPUSCULAR HEMOGLOBIN CONCENTRATION” value [5] was 38 G/DL, the NEUTROPHIL [5] was 11.67% and the “NUCLEATED RED BLOOD CELLS” value [5] was 0 /100WBC. The “PLATELET COUNT” value [5] was 1397.33 x10E3/uL, the “ALANINE AMINOTRANSFERASE” value [6] was 42 u/L and the “ALKALINE PHOSPHATASE” value [6] was 299.67 u/L. For the same sequence, the “ASPARTATE AMINOTRANSFERASE” value [6] was 76.33 u/L, the “CARBON DIOXIDE” value [6] was 25 mmol/L and the CHOLESTEROL [6] was 62.33 mg/dL. For the same sequence, the “CREATINE PHOSPHOKINASE” value [6] was 334 u/L, the CREATININE [6] was 0.15 mg/dL and the “LACTATE DEHYDROGENASE” value [6] was 108 u/L. The PHOSPHORUS [6] was 13.3 mg/dL, the POTASSIUM [6] was 6 MEQ/L and the “TOTAL BILIRUBIN” value [6] was 0.23 mg/dL. The “TOTAL PROTEIN” value [6] was 5.67 G/DL, the “ABSOLUTE BASOPHIL” value [7] was 0 CELLS/uL and the “ABSOLUTE EOSINOPHIL” value [7] was 49.67 CELLS/uL. The “ABSOLUTE MONOCYTE” value [7] was 426 CELLS/uL, the “ABSOLUTE SEGMENTED NEUTROPHIL” value [7] was 994 CELLS/uL and the BASOPHIL [7] was 0%. The EOSINOPHIL [7] was 0.33%, the “ERYTHROCYTE COUNT” value [7] was 5.79 x10E6/uL and the HEMATOCRIT [7] was 36.83%. For the same sequence, the HEMOGLOBIN [7] was 13.8 G/DL, the “LEUKOCYTE COUNT” value [7] was 14.2 x10E3/uL and the “MEAN CORPUSCULAR HEMOGLOBIN” value [7] was 23.9 pg. For the same sequence, the “MEAN CORPUSCULAR HEMOGLOBIN CONCENTRATION” value [7] was 37.5 G/DL, the MONOCYTE [7] was 3% and the NEUTROPHIL [7] was 7%. The “NUCLEATED RED BLOOD CELLS” value [7] was 0 /100WBC, the “PLATELET COUNT” value [7] was 1414 x10E3/uL and the “ALANINE AMINOTRANSFERASE” value [8] was 41.33 u/L. The “ALKALINE PHOSPHATASE” value [8] was 357 u/L, the “ASPARTATE AMINOTRANSFERASE” value [8] was 86.33 u/L and the “CARBON DIOXIDE” value [8] was 24.33 mmol/L. For the same sequence, the “CREATINE PHOSPHOKINASE” value [8] was 353.67 u/L, the CREATININE [8] was 0.22 mg/dL and the GLUCOSE [8] was 190.67 mg/dL. For the same sequence, the “LACTATE DEHYDROGENASE” value [8] was 202.33 u/L, the PHOSPHORUS [8] was 14.33 mg/dL and the POTASSIUM [8] was 6.7 MEQ/L. For the same sequence, the SODIUM [8] was 150 MEQ/L, the “TOTAL BILIRUBIN” value [8] was 0.2 mg/dL and the “TOTAL PROTEIN” value [8] was 5.87 G/DL. The “URIC ACID” value [8] was 2.3 mg/dL.
